Broadly, the residual activity is the signal under treatment as a percentage of the control signal.

Molecules are shown by their SMILES.

The first assay concerns the target CHEK1 (human) (UniProt O14757). The experiment in a line: radiometric filter-binding kinase assay, Kinase HotSpot. The settings on record: compound 0.5 µM; ATP 10 µM.
For the compound `O=C1Nc2ccccc2/C1=C1/Nc2ccccc2/C1=N\OCCC(O)CO` (stereo not drawn), the residual activity came out at 67%.
`Cn1sc(=O)n(Cc2ccccc2)c1=O`: the residual activity came out at 103%.
Same read-out and setting: the same measure for `CN(C)C[C@H]1CCn2c(c(C3=C(c4cn(C)c5ccccc45)C(=O)NC3=O)c3ccccc32)C1`: 69.8%.

The next assay has as its target MAPK14 (human) (UniProt Q16539). Described as above. Particulars: compound 0.5 µM; ATP 10 µM.
Consider `O=C1Nc2ccccc2/C1=C1/Nc2ccccc2/C1=N\OCCC(O)CO` (stereo not drawn), for which the residual activity was determined as 101%.
Same read-out and setting: the same measure for `Cn1sc(=O)n(Cc2ccccc2)c1=O`: 101%; for `CN(C)C[C@H]1CCn2c(c(C3=C(c4cn(C)c5ccccc45)C(=O)NC3=O)c3ccccc32)C1`: 108%.

The target of another assay is DYRK2 (human) (UniProt Q92630). The assay is described as above. Particulars: compound 0.5 µM; ATP 10 µM.
DYRK2 (human), sequence (Q92630 whole entry, looked up): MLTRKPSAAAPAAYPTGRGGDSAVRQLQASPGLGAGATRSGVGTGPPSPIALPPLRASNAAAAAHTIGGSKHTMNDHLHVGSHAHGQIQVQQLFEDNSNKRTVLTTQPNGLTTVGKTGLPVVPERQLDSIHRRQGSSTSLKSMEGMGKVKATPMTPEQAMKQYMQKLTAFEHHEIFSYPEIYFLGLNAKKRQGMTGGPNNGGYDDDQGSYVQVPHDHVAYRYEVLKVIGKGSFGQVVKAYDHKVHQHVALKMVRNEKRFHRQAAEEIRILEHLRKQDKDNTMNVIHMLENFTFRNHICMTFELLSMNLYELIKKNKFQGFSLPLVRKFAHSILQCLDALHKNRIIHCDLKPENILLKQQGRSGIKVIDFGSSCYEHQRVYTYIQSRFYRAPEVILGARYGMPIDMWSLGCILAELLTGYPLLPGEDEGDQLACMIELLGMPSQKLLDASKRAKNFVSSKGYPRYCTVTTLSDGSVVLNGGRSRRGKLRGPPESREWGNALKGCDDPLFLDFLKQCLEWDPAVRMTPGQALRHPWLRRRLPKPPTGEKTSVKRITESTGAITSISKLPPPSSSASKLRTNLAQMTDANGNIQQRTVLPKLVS
On to `O=C1Nc2ccccc2/C1=C1/Nc2ccccc2/C1=N\OCCC(O)CO` (stereo not drawn), for which the residual activity amounted to 61.4%.
On the same count and under the same terms, the same measure for `Cn1sc(=O)n(Cc2ccccc2)c1=O`: 104%; for `CN(C)C[C@H]1CCn2c(c(C3=C(c4cn(C)c5ccccc45)C(=O)NC3=O)c3ccccc32)C1`: 102%.

In another assay the target is MINK1 (human) (UniProt Q8N4C8). Described as above. Particulars: compound 0.5 µM; ATP 10 µM.
MINK1 (human), sequence (Q8N4C8 whole entry, looked up): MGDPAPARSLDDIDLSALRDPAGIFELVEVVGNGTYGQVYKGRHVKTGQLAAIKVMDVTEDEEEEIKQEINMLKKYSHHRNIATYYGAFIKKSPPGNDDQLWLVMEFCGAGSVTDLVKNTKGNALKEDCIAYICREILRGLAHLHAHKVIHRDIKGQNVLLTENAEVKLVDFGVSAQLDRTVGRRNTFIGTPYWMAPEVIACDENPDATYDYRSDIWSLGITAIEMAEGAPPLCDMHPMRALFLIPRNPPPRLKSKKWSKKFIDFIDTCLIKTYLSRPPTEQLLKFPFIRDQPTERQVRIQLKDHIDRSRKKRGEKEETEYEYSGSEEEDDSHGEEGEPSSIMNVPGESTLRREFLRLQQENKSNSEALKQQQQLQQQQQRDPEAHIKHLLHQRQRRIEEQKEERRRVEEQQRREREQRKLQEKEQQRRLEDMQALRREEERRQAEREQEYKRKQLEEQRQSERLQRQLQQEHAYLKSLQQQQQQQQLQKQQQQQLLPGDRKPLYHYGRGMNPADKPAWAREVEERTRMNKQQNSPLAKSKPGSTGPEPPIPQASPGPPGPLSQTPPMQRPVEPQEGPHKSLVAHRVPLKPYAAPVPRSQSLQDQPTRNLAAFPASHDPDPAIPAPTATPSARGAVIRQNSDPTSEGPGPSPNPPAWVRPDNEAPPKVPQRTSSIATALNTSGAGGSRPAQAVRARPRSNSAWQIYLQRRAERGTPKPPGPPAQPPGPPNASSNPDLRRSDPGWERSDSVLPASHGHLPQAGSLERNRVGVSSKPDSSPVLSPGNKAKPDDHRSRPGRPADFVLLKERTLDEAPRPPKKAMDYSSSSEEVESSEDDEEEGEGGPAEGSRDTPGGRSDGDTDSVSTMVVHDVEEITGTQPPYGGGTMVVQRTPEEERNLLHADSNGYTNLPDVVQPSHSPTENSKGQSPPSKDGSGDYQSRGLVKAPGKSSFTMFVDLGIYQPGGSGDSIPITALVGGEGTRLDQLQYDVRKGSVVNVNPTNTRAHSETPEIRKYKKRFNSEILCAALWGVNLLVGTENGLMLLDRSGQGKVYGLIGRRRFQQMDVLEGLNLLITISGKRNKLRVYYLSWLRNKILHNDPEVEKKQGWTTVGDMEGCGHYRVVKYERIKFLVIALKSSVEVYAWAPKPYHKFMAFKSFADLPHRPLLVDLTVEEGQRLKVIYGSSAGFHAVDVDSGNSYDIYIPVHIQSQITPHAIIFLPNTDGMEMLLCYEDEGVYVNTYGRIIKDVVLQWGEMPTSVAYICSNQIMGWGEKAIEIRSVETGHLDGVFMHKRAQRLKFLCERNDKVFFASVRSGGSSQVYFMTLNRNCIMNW
As to `O=C1Nc2ccccc2/C1=C1/Nc2ccccc2/C1=N\OCCC(O)CO` (stereo not drawn), the residual activity was 21%.
Still for that read-out and setting: the same measure for `Cn1sc(=O)n(Cc2ccccc2)c1=O`: 88.7%.
On the same count and under the same terms, the same measure for `CN(C)C[C@H]1CCn2c(c(C3=C(c4cn(C)c5ccccc45)C(=O)NC3=O)c3ccccc32)C1`: 97.8%.

The next assay addresses PRKCI (human) (UniProt P41743). The description is as above. Particulars: compound 0.5 µM; ATP 10 µM.
`O=C1Nc2ccccc2/C1=C1/Nc2ccccc2/C1=N\OCCC(O)CO` (stereo not drawn): the residual activity stood at 100%.
Take `Cn1sc(=O)n(Cc2ccccc2)c1=O`: the residual activity was found to be 95.2%.
The same measure, in the same setting: the same measure for `CN(C)C[C@H]1CCn2c(c(C3=C(c4cn(C)c5ccccc45)C(=O)NC3=O)c3ccccc32)C1`: 36.2%.

The target of a further assay is FES (human) (UniProt P07332). The assay is described as above. Particulars: compound 0.5 µM; ATP 10 µM.
FES (human), sequence (P07332 whole entry, looked up): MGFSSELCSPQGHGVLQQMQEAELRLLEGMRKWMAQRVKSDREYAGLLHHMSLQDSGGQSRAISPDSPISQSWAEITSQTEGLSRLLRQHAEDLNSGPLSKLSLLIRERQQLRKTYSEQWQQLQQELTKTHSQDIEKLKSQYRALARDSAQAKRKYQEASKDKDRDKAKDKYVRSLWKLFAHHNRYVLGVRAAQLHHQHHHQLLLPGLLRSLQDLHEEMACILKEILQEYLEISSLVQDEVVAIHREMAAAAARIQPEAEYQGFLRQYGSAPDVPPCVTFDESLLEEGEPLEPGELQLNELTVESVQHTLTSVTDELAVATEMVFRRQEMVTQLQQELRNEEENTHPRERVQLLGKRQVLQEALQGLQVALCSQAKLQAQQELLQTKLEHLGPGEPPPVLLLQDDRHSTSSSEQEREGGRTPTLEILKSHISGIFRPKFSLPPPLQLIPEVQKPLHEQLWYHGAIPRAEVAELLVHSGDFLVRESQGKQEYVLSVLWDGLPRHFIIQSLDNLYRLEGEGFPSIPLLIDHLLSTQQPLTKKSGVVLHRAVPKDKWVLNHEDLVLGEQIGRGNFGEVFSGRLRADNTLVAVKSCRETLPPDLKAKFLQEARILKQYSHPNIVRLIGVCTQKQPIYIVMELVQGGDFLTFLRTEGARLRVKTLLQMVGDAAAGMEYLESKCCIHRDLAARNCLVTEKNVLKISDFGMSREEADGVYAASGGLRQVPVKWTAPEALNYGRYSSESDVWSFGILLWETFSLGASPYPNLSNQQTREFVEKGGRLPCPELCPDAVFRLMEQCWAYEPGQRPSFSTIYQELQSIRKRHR
On to `O=C1Nc2ccccc2/C1=C1/Nc2ccccc2/C1=N\OCCC(O)CO` (stereo not drawn), for which the residual activity was 81.7%.
Turning to `Cn1sc(=O)n(Cc2ccccc2)c1=O`, the residual activity was 101%.
On the same count and under the same terms, the same measure for `CN(C)C[C@H]1CCn2c(c(C3=C(c4cn(C)c5ccccc45)C(=O)NC3=O)c3ccccc32)C1`: 102%.

Another assay has as its target NEK3 (human) (UniProt P51956). The description is as above. Particulars: compound 0.5 µM; ATP 10 µM.
With `O=C1Nc2ccccc2/C1=C1/Nc2ccccc2/C1=N\OCCC(O)CO` (stereo not drawn), the residual activity is 102%.
For the compound `Cn1sc(=O)n(Cc2ccccc2)c1=O`, the residual activity came to 89.3%.
The same measure, in the same setting: the same measure for `CN(C)C[C@H]1CCn2c(c(C3=C(c4cn(C)c5ccccc45)C(=O)NC3=O)c3ccccc32)C1`: 99.4%.

Another assay deals with NEK1 (human) (UniProt Q96PY6). Described as above. The settings on record: compound 0.5 µM; ATP 10 µM.
Consider `O=C1Nc2ccccc2/C1=C1/Nc2ccccc2/C1=N\OCCC(O)CO` (stereo not drawn), for which the residual activity was found to be 92.9%.
Take `Cn1sc(=O)n(Cc2ccccc2)c1=O`: the residual activity amounted to 102%.
The same measure, in the same setting: the same measure for `CN(C)C[C@H]1CCn2c(c(C3=C(c4cn(C)c5ccccc45)C(=O)NC3=O)c3ccccc32)C1`: 105%.

The target in another assay is PRKD2 (human) (UniProt Q9BZL6). Described as above. The settings on record: compound 0.5 µM; ATP 10 µM.
PRKD2 (human), sequence (Q9BZL6 whole entry, looked up): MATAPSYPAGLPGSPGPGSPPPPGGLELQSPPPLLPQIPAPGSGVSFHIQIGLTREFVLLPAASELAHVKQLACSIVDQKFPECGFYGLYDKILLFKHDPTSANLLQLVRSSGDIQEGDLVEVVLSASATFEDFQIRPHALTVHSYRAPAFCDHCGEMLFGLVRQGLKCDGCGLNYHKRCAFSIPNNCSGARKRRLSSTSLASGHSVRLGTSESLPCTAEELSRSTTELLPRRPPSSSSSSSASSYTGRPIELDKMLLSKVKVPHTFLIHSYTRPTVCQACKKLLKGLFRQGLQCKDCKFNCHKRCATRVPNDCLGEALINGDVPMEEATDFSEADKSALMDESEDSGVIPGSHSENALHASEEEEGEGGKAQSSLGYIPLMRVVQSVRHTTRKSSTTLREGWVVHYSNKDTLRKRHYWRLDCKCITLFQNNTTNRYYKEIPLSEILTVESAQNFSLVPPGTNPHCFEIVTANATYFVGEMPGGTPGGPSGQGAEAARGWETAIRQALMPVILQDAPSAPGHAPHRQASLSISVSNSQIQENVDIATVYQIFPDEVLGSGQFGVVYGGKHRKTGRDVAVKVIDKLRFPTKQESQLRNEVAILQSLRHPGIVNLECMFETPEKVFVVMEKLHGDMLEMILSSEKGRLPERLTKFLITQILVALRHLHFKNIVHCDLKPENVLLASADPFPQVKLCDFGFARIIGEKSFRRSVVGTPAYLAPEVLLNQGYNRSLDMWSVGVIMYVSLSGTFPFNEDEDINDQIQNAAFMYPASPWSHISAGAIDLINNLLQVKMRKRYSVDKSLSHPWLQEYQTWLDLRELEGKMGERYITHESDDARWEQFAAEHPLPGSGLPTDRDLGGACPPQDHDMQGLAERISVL
Turning to `O=C1Nc2ccccc2/C1=C1/Nc2ccccc2/C1=N\OCCC(O)CO` (stereo not drawn), the residual activity turned out to be 74.3%.
Still for that read-out and setting: the same measure for `Cn1sc(=O)n(Cc2ccccc2)c1=O`: 95.1%; for `CN(C)C[C@H]1CCn2c(c(C3=C(c4cn(C)c5ccccc45)C(=O)NC3=O)c3ccccc32)C1`: 97.6%.

The target in another assay is MATK (human) (UniProt P42679). The description is as above. Particulars: compound 0.5 µM; ATP 10 µM.
MATK (human), sequence (P42679 whole entry, looked up): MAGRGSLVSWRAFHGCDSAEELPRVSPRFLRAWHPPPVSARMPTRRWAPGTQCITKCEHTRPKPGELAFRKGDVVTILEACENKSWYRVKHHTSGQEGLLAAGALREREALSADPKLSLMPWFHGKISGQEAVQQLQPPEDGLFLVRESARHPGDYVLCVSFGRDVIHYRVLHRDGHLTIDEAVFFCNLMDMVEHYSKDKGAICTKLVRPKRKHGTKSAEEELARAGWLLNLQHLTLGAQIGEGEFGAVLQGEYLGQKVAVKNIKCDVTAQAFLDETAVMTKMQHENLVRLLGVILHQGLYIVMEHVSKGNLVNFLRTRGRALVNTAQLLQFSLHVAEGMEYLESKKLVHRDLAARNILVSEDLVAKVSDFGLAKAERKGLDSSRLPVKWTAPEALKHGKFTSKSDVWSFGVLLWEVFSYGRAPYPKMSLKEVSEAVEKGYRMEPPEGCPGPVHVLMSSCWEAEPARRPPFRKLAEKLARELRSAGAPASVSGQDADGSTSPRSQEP
Take `O=C1Nc2ccccc2/C1=C1/Nc2ccccc2/C1=N\OCCC(O)CO` (stereo not drawn): the residual activity is 101%.
On the same count and under the same terms, the same measure for `Cn1sc(=O)n(Cc2ccccc2)c1=O`: 95.3%; for `CN(C)C[C@H]1CCn2c(c(C3=C(c4cn(C)c5ccccc45)C(=O)NC3=O)c3ccccc32)C1`: 95%.

A further assay concerns the target CDC42BPB (human) (UniProt Q9Y5S2). The description is as above. Particulars: compound 0.5 µM; ATP 10 µM.
Take `O=C1Nc2ccccc2/C1=C1/Nc2ccccc2/C1=N\OCCC(O)CO` (stereo not drawn): the residual activity turned out to be 96.6%.
Same read-out and setting: the same measure for `Cn1sc(=O)n(Cc2ccccc2)c1=O`: 96.4%; for `CN(C)C[C@H]1CCn2c(c(C3=C(c4cn(C)c5ccccc45)C(=O)NC3=O)c3ccccc32)C1`: 103%.

The target in another assay is TSSK2 (human) (UniProt Q96PF2). The description is as above. Particulars: compound 0.5 µM; ATP 10 µM.
In the case of `O=C1Nc2ccccc2/C1=C1/Nc2ccccc2/C1=N\OCCC(O)CO` (stereo not drawn), the residual activity stood at 96.2%.
Still for that read-out and setting: the same measure for `Cn1sc(=O)n(Cc2ccccc2)c1=O`: 100%; for `CN(C)C[C@H]1CCn2c(c(C3=C(c4cn(C)c5ccccc45)C(=O)NC3=O)c3ccccc32)C1`: 97.1%.

For another assay, the target named is INSRR (human) (UniProt P14616). Described as above. The settings on record: compound 0.5 µM; ATP 10 µM.
`O=C1Nc2ccccc2/C1=C1/Nc2ccccc2/C1=N\OCCC(O)CO` (stereo not drawn): the residual activity is 2.77%.
As to `Cn1sc(=O)n(Cc2ccccc2)c1=O`, the residual activity stood at 99.3%.
Still for that read-out and setting: the same measure for `CN(C)C[C@H]1CCn2c(c(C3=C(c4cn(C)c5ccccc45)C(=O)NC3=O)c3ccccc32)C1`: 98.7%.

The target of the next assay is PKN2 (human) (UniProt Q16513). Described as above. The settings on record: compound 0.5 µM; ATP 10 µM.
Consider `O=C1Nc2ccccc2/C1=C1/Nc2ccccc2/C1=N\OCCC(O)CO` (stereo not drawn), for which the residual activity was 90.1%.
The same measure, in the same setting: the same measure for `Cn1sc(=O)n(Cc2ccccc2)c1=O`: 97.2%.
Same read-out and setting: the same measure for `CN(C)C[C@H]1CCn2c(c(C3=C(c4cn(C)c5ccccc45)C(=O)NC3=O)c3ccccc32)C1`: 87%.

For another assay, the target named is PRKD1 (human) (UniProt Q15139). The description is as above. Particulars: compound 0.5 µM; ATP 10 µM.
As to `O=C1Nc2ccccc2/C1=C1/Nc2ccccc2/C1=N\OCCC(O)CO` (stereo not drawn), the residual activity is 72.7%.
Consider `Cn1sc(=O)n(Cc2ccccc2)c1=O`, for which the residual activity worked out at 101%.
The same measure, in the same setting: the same measure for `CN(C)C[C@H]1CCn2c(c(C3=C(c4cn(C)c5ccccc45)C(=O)NC3=O)c3ccccc32)C1`: 101%.

The next assay has as its target WEE1 (human) (UniProt P30291). The assay is described as above. The settings on record: compound 0.5 µM; ATP 10 µM.
With `O=C1Nc2ccccc2/C1=C1/Nc2ccccc2/C1=N\OCCC(O)CO` (stereo not drawn), the residual activity worked out at 82%.
In the case of `Cn1sc(=O)n(Cc2ccccc2)c1=O`, the residual activity was determined as 92.3%.
As for `CN(C)C[C@H]1CCn2c(c(C3=C(c4cn(C)c5ccccc45)C(=O)NC3=O)c3ccccc32)C1`, the residual activity came to 101%.

The target of the next assay is HIPK1 (human) (UniProt Q86Z02). The assay is described as above. Particulars: compound 0.5 µM; ATP 10 µM.
With `O=C1Nc2ccccc2/C1=C1/Nc2ccccc2/C1=N\OCCC(O)CO` (stereo not drawn), the residual activity turned out to be 96%.
Turning to `Cn1sc(=O)n(Cc2ccccc2)c1=O`, the residual activity was found to be 92.3%.
For `CN(C)C[C@H]1CCn2c(c(C3=C(c4cn(C)c5ccccc45)C(=O)NC3=O)c3ccccc32)C1`, the residual activity stood at 101%.

Another assay deals with ERBB2 (human) (UniProt P04626). The description is as above. The settings on record: compound 0.5 µM; ATP 10 µM.
On to `O=C1Nc2ccccc2/C1=C1/Nc2ccccc2/C1=N\OCCC(O)CO` (stereo not drawn), for which the residual activity came out at 95.3%.
Consider `Cn1sc(=O)n(Cc2ccccc2)c1=O`, for which the residual activity was 106%.
Same read-out and setting: the same measure for `CN(C)C[C@H]1CCn2c(c(C3=C(c4cn(C)c5ccccc45)C(=O)NC3=O)c3ccccc32)C1`: 95.9%.

The target in another assay is BRSK2 (human) (UniProt Q8IWQ3). Described as above. The settings on record: compound 0.5 µM; ATP 10 µM.
Take `O=C1Nc2ccccc2/C1=C1/Nc2ccccc2/C1=N\OCCC(O)CO` (stereo not drawn): the residual activity stood at 33.3%.
On the same count and under the same terms, the same measure for `Cn1sc(=O)n(Cc2ccccc2)c1=O`: 99.4%; for `CN(C)C[C@H]1CCn2c(c(C3=C(c4cn(C)c5ccccc45)C(=O)NC3=O)c3ccccc32)C1`: 102%.

Another assay addresses SLK (human) (UniProt Q9H2G2). The description is as above. Particulars: compound 0.5 µM; ATP 10 µM.
For the compound `O=C1Nc2ccccc2/C1=C1/Nc2ccccc2/C1=N\OCCC(O)CO` (stereo not drawn), the residual activity worked out at 59.9%.
Still for that read-out and setting: the same measure for `Cn1sc(=O)n(Cc2ccccc2)c1=O`: 84.7%; for `CN(C)C[C@H]1CCn2c(c(C3=C(c4cn(C)c5ccccc45)C(=O)NC3=O)c3ccccc32)C1`: 83.1%.

Another assay deals with MARK4 (human) (UniProt Q96L34). The assay is described as above. Particulars: compound 0.5 µM; ATP 10 µM.
MARK4 (human), sequence (Q96L34 whole entry, looked up): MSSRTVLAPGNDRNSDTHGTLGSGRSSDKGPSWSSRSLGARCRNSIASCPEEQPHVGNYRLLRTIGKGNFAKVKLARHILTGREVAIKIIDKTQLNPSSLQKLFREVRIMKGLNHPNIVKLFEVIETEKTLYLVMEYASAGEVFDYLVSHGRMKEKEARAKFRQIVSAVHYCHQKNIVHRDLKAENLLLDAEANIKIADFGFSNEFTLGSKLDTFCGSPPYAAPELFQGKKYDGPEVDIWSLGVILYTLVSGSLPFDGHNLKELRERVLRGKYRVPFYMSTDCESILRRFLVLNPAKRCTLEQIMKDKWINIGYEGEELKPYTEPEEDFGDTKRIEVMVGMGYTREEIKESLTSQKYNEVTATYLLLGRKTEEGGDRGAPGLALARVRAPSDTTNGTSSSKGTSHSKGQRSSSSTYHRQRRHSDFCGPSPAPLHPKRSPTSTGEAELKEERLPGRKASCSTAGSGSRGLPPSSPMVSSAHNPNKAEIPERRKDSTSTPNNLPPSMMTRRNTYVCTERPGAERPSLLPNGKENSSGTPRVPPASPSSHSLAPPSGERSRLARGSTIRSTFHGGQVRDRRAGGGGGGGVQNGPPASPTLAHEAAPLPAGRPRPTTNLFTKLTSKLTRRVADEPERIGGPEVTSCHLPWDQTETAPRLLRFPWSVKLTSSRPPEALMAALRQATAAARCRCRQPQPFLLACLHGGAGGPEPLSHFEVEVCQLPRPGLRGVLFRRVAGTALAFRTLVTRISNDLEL
Turning to `O=C1Nc2ccccc2/C1=C1/Nc2ccccc2/C1=N\OCCC(O)CO` (stereo not drawn), the residual activity turned out to be 43.5%.
The same measure, in the same setting: the same measure for `Cn1sc(=O)n(Cc2ccccc2)c1=O`: 85.1%.
Still for that read-out and setting: the same measure for `CN(C)C[C@H]1CCn2c(c(C3=C(c4cn(C)c5ccccc45)C(=O)NC3=O)c3ccccc32)C1`: 93.9%.

The values are drawn from the kinase profiling compilation of Christmann-Franck et al. (2016).
